# Results reported in PubChem BioAssay (NCI).
# “And” between values parts separate entries of the source, which are not always exact repeats. Equal entries are not always repeated.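 Briefly, cells in 96-well plates were exposed to five compound concentrations for 48 h, and endpoints were estimated by linear interpolation. At the GI50, growth is halved. TGI is the concentration that stops growth completely.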
# What was measured:
# Test in all cases: growth of human tumour cells (NCI), 48 h
# KM12 colon = tested on: KM12 colon
# NCI-H522 lung = tested on: NCI-H522 lung
# OVCAR-8 ovarian = tested on: OVCAR-8 ovarian
# HOP-92 NSCLC = tested on: HOP-92 NSCLC
# HCC-2998 colon = tested on: HCC-2998 colon
# MDA-MB-435 = tested on: MDA-MB-435
# A498 renal = tested on: A498 renal
# RPMI-8226 leukemia = tested on: RPMI-8226 leukemia
# UACC-257 melanoma = tested on: UACC-257 melanoma
# ACHN renal = tested on: ACHN renal
SMILES,GI50 (KM12 colon),TGI (KM12 colon),GI50 (NCI-H522 lung),TGI (NCI-H522 lung),GI50 (OVCAR-8 ovarian),TGI (OVCAR-8 ovarian),GI50 (HOP-92 NSCLC),TGI (HOP-92 NSCLC),GI50 (HCC-2998 colon),TGI (HCC-2998 colon),GI50 (MDA-MB-435),TGI (MDA-MB-435),GI50 (A498 renal),TGI (A498 renal),GI50 (RPMI-8226 leukemia),TGI (RPMI-8226 leukemia),GI50 (UACC-257 melanoma),TGI (UACC-257 melanoma),GI50 (ACHN renal),TGI (ACHN renal)
COc1cc(NC(=O)c2ccccc2Nc2ccnc(C(F)(F)F)c2)cc(OC)c1OC,54.9 µM,> 100 µM,38.2 µM,> 100 µM,69.6 µM,> 100 µM,23.2 µM,74.1 µM,88.3 µM,> 100 µM,63.3 µM,> 100 µM,26.6 µM,> 100 µM,36.3 µM,> 100 µM,88.2 µM,> 100 µM,99.9 µM,> 100 µM
COc1cc(Cn2c(SCC(=O)Nc3ccc(Cl)cc3)nc3ccccc3c2=O)cc(OC)c1OC,32.3 µM,> 100 µM,4.89 µM,21.9 µM,4.82 µM,16.1 µM,2.26 µM,9.12 µM,26.6 µM,> 100 µM,22.8 µM,> 100 µM,2.42 µM,12.2 µM,22.9 µM,> 100 µM,6.04 µM,28 µM,3.15 µM,11.8 µM
CCN1C(=O)N(CC)C2C1NN=c1s/c(=C\c3ccc(OC)cc3)c(=O)n12 (stereo not drawn),0.0716 µM,> 100 µM,0.105 µM,–,0.369 µM,–,3.25 µM,> 100 µM,0.357 µM,> 100 µM,0.031 µM,0.105 µM,0.0222 µM,0.0924 µM,0.353 µM,> 100 µM,> 100 µM,> 100 µM,0.165 µM,> 100 µM
CS(=O)(=O)N1CCc2c(-c3cnc(N)nc3)nc(N3CCOCC3)nc21,2.1 µM and 2.25 µM,> 100 µM,0.642 µM and 2.1 µM,> 48.7 µM,1.65 µM and 0.984 µM,> 10 µM and 14 µM,0.102 µM and 0.112 µM,0.641 µM and 1.35 µM,0.923 µM and 0.794 µM,> 73.5 µM,0.94 µM and 0.78 µM,> 10 µM and 12.6 µM,0.203 µM and 0.101 µM,0.836 µM and 0.447 µM,1.52 µM and 2.5 µM,> 100 µM,0.809 µM and 0.446 µM,6.85 µM and 3.8 µM,0.735 µM and 0.677 µM,> 100 µM
Cc1cc(C#Cc2ccccc2)ccc1-n1c(/C=C/c2cc(O)ccc2O)nc2ccccc2c1=O,1.65 µM,3.07 µM,1.29 µM,2.56 µM,1.94 µM,5.4 µM,1.54 µM,4.33 µM,1.36 µM,2.64 µM,1.67 µM,3.53 µM,0.37 µM,2.63 µM,1.26 µM,6.08 µM,1.56 µM,2.94 µM,1.44 µM,2.75 µM
COC1=CC2CCN3Cc4cc5c(cc4C(C1O)C23)OCC5 (stereo not drawn),3.06 µM,30.3 µM,28 µM,> 100 µM,3.75 µM,37.3 µM,2.97 µM,> 28 µM,1.09 µM,7.37 µM,3.44 µM,21.3 µM,17.7 µM,98.8 µM,15 µM,> 29.1 µM,2.09 µM,34.6 µM,0.306 µM,2.31 µM
CCOC(=O)c1cc(-c2ccccc2)[nH]c1N/N=C/c1c(Cl)cccc1Cl,0.584 µM,24.3 µM,0.701 µM,> 26.2 µM,4.77 µM,> 100 µM,2.02 µM,62.4 µM,1.01 µM,7.48 µM,0.272 µM,2.83 µM,1.08 µM,43.7 µM,2.11 µM,11.3 µM,49.2 µM,> 100 µM,0.874 µM,> 100 µM
CC(C)[C@H](C(=O)O[C@@H]1/C=C/C(=O)O[C@@H](C)CCC/C=C/[C@@H]2C[C@H](O)C[C@H]21)N(C)C,3.65 µM,11 µM,26.5 µM,> 68.8 µM,13.2 µM,> 68.9 µM,36.4 µM,96.4 µM,12.9 µM,62.2 µM,5.84 µM,> 55.8 µM,2.08 µM,6.62 µM,8.12 µM,36.8 µM,15.2 µM,71.1 µM,35.2 µM,> 100 µM
CN1CCN(c2ccc(Nc3ncc4cc5n(c4n3)C3(CCCCC3)CNC5=O)nc2)CC1,1.32 µM,21.9 µM,9.01 µM,31.5 µM,4.11 µM,86.1 µM,1.27 µM,18.2 µM,6.14 µM,30.4 µM,2.02 µM,24 µM,0.17 µM,1.8 µM,0.0624 µM,4.04 µM,5.67 µM,39.2 µM,0.847 µM,12.6 µM
N[C@@H](CSSC[C@H](N)C(=O)N1CCn2cc(-c3ccccc3)nc2[C@@H]1CC1CCCCC1)C(=O)N1CCn2cc(-c3ccccc3)nc2[C@@H]1CC1CCCCC1,0.91 µM,2.47 µM,1.68 µM,3.39 µM,1.87 µM,5.76 µM,2.45 µM,5.8 µM,1.66 µM,3.17 µM,0.331 µM,1.45 µM,2.68 µM,5.39 µM,2.35 µM,5.68 µM,1.4 µM,3.32 µM,1.77 µM,3.81 µM
N#Cc1ccc(/C=C/C(=O)c2ccccc2)cc1,1.79 µM and 1.83 µM,3.46 µM and 3.54 µM,10.4 µM and 14.7 µM,22.4 µM and 31.5 µM,9.07 µM and 11.2 µM,22.2 µM and 27.5 µM,16.9 µM and 17.6 µM,65.5 µM and 39 µM,5.82 µM and 5.13 µM,10.7 µM and 10.3 µM,6.28 µM and 8.07 µM,18 µM and 21.8 µM,14.3 µM and 12.3 µM,29.5 µM and 24.9 µM,2.32 µM and 1.93 µM,6.4 µM and 4.83 µM,13.6 µM and 15.6 µM,26.4 µM and 29.5 µM,12.3 µM and 16.2 µM,24.8 µM and 29.8 µM
Nc1ccc(C(=O)Nc2ccccc2N)cc1,–,> 100 µM,–,47.2 µM,–,> 100 µM,–,> 100 µM,–,> 100 µM,–,> 100 µM,–,> 100 µM,–,98.8 µM,–,> 72.5 µM,–,> 100 µM
